Test results as given in US20140011781A1, “METHOD FOR TREATING OR […] USING TESTIS EXTRACT AS ACTIVE INGREDIENT” (Industry-Academic Cooperation Foundation, Yeungnam …, priority 2009, published 2014).

Experiments:
Assay type in all cases: in vivo, CD-1 mouse
[1] = test system: red blood cell in peripheral blood; assay: Numerical change of RBC in peripheral blood; settings: 0.1% extract or nandrolone injected to mice
Protocol: (§1) Next, the pig testis extracts M1 and M2 were dissolved with first solvent of 100% ethanol, and then sesame oil was added to prepare at a concentration of 1 g/ml. 100% was defined as 100-fold diluted one with the sesame oil, and then the sample was used by diluting to be a concentration of 0.1%, 1%, 10% or 50%. Each concentration (0.1%, 1%, 10%, 50% or 100%) of the pig testis extract was subcutaneously injected to CD-1 mouse of 6 to 8-week raised under physiological condition for 21 days (6 mice per each group).
Peripheral bloods were obtained after treating each of 0.1% pig testis extracts M1 and M2 under the same condition as the above Experimental Example. Since then, the number of RBC (Red Blood Cell) was counted by using an analyzer.

[2] = test system: CD34 hematopoietic stem cells in bone marrow; assay: Numerical change of CD34-marked hematopoietic stem cell using FACS; settings: 0.1% extract or nandrolone injected to mice, femur bone marrow
Protocol: as §1
In the Experimental Example, CD34, which is a marker for hematopoietic stem cell, was used in order to confirm whether a pig testis extract stimulates proliferation of hematopoietic stem cells, or not. Each of 0.1% pig testis extracts M1 and M2 was injected to the mice as the above Experimental Example; then the mice were scarified; their femurs were collected; and then bone marrows were extracted by using PBS solution.
Since then, after reacting with CD34 specific antibody, CD34 hematopoietic stem cells were counted for the analysis by using a fluorescent activated cell sorter.

reproductive period = assay: Analysis of reproductive period change by vaginal smearing; settings: during 21 days of subcutaneous injection, female CD-1 mice; nandrolone 3 mg/kg BW; compared with sesame oil control
Protocol: as §1
As mentioned above, each concentration of the pig testis extract was subcutaneously injected to 6-health CD-1 female mice raised under physiological condition for 21 days. Vaginal smearing was performed to analyze reproductive period change during an injection. As a control group, the mice injected with only sesame oil and the mice injected with only 19-nortestosterone (3 mg/kg BW) were used to analyze the effects. At 21 days after treating, the mice were anesthetized with sodium pentobarbital and then their peripheral bloods were collected. And immediately, the mice were sacrificed by a luxation of the cervical vertebral, and a femur for obtaining bone marrow and liver tissue, ovary, and uterus for analyzing cytotoxicity were removed. Some of them were fixed for a histological analysis and some of them were stored at a deep-freezer of −80° C. […]

SMILES: C[C@]12CC[C@H]3[C@@H](CCC4=CC(=O)CC[C@@H]43)[C@@H]1CC[C@@H]2O [nandrolone]
- number of RBC in peripheral blood compared with control group [1]: significantly increased
- number of CD34 hematopoietic stem cell in bone marrow [2]: significantly increased
- progress of reproductive period (vaginal smearing) (reproductive period): gradually irregular
